Source: ChEMBL document CHEMBL1201862, “PubChem BioAssay data set” (2004)
Active and inactive are the calls of the source.

Tests used:
[1] = molecular target: T1, Calpain-2 catalytic subunit (Sus scrofa, UniProt P43367); test: m-calpain protease blockers, concentration series – biochemical, fluorogenic peptide substrate, dose response (AID 1420); type: functional
T1 sequence (P43367 whole entry): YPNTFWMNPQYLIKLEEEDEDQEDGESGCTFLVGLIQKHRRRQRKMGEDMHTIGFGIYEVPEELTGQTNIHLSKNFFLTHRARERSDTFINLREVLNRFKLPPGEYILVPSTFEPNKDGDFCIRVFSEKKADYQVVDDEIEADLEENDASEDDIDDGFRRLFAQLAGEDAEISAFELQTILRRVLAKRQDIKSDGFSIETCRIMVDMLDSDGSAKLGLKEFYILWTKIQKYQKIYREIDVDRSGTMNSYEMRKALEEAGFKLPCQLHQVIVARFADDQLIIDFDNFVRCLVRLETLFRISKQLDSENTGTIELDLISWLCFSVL

[2] = molecular target: T2, Protein RecA (Mycobacterium tuberculosis, UniProt P9WHJ3); test: Fluorescence Cell-Free Homogeneous Dose Retest to Identify Inhibitors of RecA-Intein Splicing Activity. [Related pubchem assays (depositor defined):AID2097, AID2223, AID489010, AID492950]; type: functional
T2 sequence (P9WHJ3 whole entry): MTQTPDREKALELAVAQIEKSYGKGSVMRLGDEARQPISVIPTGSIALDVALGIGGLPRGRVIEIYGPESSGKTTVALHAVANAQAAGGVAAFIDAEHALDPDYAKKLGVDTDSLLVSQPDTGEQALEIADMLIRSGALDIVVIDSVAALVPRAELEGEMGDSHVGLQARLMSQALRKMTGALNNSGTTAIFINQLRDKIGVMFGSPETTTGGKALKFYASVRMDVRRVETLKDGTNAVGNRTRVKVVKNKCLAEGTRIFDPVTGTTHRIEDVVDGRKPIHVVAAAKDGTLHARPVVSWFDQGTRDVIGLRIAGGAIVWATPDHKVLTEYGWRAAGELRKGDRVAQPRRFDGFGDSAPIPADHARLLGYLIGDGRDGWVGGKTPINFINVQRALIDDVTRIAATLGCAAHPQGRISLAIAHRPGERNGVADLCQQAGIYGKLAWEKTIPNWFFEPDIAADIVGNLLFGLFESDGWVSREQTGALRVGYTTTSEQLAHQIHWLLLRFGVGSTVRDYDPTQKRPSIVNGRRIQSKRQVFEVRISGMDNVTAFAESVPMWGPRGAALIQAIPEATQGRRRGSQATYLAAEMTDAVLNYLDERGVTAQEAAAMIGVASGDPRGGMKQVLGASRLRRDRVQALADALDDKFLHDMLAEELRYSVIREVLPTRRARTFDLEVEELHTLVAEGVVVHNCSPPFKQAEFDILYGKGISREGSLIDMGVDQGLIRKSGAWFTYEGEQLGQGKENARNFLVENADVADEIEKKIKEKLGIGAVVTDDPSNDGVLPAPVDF

[3] = molecular target: T3, Replicative DNA helicase DnaB (Mycobacterium tuberculosis, UniProt P9WMR3); test: DnaB intein splicing inhibitors, dose response, biochemical, cell-free fluorescence (AID 449749); type: functional
T3 sequence (P9WMR3 whole entry): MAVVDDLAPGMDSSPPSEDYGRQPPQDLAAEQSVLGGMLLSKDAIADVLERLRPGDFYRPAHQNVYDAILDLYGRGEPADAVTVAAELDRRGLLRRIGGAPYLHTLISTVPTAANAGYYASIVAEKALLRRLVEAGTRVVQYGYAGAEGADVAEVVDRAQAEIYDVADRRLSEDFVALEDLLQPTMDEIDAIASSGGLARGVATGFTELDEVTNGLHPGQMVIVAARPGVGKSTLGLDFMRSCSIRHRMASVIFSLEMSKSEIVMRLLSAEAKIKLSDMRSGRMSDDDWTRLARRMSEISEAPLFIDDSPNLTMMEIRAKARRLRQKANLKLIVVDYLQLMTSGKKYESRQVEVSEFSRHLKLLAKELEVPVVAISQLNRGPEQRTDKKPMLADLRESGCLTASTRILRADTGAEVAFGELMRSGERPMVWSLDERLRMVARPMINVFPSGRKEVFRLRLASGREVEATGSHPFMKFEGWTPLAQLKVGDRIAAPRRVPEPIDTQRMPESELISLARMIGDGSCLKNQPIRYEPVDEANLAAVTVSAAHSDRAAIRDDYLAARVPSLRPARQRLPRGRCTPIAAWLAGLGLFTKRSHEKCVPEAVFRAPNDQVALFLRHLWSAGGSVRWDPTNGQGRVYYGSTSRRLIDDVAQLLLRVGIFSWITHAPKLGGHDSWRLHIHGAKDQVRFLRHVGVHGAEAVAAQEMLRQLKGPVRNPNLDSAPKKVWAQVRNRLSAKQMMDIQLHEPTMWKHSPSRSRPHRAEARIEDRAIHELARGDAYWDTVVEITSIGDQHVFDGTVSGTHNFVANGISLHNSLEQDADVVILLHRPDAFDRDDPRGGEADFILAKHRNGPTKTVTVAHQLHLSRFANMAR

[4] = test system: H9c2; test: cells; type: functional, cell-based; settings: Rattus norvegicus, H9c2, Myocardium;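 note: confirmatory concentration-response retest of ultra-high-throughput screening hits for modulation of myocardial damage; cell death induced by hydrogen peroxide oxidative stress; compound pretreatment for 60 min then peroxide exposure for 2 h; potency is for protecting the cells against peroxide damage rather than for killing them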
[5] = molecular target: T4, Fatty acid synthase (Homo sapiens, UniProt P49327); test: inhibition of human FAS-TE enzyme activity – biochemical, endpoint fluorescence intensity, uHTS hits, dose response (AID 624327); type: functional;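 note: fluorescence from hydrolysis of an O-methyl fluorescein acyl ester substrate by the enzyme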
T4 sequence (P49327 whole entry): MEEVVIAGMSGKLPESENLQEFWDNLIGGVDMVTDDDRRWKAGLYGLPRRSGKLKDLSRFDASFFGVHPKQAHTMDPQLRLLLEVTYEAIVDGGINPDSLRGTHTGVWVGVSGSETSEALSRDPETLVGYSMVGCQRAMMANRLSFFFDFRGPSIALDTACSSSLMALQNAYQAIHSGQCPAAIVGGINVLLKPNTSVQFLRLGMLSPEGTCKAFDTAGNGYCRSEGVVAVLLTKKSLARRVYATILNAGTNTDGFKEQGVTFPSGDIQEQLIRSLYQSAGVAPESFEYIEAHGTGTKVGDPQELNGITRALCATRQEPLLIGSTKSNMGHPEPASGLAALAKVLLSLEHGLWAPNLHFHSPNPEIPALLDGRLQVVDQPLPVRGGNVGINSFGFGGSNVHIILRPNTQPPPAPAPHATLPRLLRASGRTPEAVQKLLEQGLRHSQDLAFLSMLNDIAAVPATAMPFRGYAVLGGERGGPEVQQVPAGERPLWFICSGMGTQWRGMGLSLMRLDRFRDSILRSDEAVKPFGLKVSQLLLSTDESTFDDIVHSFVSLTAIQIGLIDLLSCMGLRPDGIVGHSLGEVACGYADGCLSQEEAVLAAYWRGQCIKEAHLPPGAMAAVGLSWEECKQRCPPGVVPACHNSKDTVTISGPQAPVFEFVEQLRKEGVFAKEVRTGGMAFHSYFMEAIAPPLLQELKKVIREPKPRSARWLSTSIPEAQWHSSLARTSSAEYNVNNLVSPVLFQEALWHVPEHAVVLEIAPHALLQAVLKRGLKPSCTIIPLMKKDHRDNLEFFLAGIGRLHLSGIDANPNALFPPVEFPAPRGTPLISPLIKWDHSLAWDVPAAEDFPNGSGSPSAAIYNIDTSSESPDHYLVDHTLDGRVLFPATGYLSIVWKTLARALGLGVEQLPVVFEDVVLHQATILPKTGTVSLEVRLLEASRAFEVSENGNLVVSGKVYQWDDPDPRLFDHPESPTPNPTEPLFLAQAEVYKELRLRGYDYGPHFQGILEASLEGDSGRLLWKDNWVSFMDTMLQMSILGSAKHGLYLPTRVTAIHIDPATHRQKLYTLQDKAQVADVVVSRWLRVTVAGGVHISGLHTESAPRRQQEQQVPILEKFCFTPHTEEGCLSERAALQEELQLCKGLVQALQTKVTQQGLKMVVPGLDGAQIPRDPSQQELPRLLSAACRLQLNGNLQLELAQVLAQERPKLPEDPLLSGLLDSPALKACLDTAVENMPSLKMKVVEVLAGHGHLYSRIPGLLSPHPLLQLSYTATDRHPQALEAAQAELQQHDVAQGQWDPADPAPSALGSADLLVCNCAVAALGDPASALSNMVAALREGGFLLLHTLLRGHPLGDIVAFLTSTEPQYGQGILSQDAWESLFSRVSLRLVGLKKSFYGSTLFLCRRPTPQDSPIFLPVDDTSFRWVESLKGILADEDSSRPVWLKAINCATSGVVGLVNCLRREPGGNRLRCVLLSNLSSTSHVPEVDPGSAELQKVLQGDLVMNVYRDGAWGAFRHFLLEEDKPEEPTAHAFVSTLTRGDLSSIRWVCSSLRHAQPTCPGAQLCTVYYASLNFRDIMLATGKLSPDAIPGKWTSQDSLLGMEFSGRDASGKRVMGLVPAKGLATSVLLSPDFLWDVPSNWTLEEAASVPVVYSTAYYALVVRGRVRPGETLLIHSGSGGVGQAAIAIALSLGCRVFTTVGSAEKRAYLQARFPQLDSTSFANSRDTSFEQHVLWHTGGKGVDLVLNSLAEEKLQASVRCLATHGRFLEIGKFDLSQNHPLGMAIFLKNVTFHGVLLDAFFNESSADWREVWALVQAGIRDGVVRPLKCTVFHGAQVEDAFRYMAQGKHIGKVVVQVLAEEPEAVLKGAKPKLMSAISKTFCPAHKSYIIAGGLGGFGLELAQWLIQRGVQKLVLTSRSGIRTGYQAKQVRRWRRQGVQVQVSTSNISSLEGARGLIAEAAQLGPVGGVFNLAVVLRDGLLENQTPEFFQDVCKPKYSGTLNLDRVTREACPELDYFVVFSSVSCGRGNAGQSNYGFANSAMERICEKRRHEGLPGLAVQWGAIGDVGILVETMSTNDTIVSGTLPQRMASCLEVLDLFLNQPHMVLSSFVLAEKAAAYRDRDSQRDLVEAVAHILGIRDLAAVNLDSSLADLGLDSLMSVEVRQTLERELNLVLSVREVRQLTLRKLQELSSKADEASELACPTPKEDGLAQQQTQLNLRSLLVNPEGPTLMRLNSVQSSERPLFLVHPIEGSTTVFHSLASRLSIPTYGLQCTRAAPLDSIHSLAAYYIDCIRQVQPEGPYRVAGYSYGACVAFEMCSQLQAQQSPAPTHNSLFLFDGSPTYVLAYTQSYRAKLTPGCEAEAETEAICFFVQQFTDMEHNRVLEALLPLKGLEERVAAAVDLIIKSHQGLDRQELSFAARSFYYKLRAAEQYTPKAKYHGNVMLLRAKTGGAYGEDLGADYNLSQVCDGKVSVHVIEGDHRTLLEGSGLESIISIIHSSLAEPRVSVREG

[6] = molecular target: T4, Fatty acid synthase; test: inhibition of human FAS-TE enzyme activity – biochemical, kinetic fluorescence intensity, dose response (AID 624326); type: functional;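 note: rate of fluorescence rise from hydrolysis of a fluorogenic O-methyl fluorescein ester substrate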
[7] = fluconazole-exposed Candida albicans growth modulators – fluorescence, retest, confirmation (AID 2467); type: functional, cell-based
[8] = NIH-3T3 fibroblast cytotoxicity, dose response, cytotoxicity control, cell-based, fluorescence, Alamar Blue, secondary assay (AID 2327); type: functional;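 note: NIH-3T3 mouse fibroblasts cultured with fluconazole at 8 µg/mL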
[9] = molecular target: Cytochrome P450 3A4 (Homo sapiens, UniProt P08684);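 note: CYP3A4 tested as one member of a cytochrome P450 panel screen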
Sequence of Cytochrome P450 3A4 (P08684 whole entry): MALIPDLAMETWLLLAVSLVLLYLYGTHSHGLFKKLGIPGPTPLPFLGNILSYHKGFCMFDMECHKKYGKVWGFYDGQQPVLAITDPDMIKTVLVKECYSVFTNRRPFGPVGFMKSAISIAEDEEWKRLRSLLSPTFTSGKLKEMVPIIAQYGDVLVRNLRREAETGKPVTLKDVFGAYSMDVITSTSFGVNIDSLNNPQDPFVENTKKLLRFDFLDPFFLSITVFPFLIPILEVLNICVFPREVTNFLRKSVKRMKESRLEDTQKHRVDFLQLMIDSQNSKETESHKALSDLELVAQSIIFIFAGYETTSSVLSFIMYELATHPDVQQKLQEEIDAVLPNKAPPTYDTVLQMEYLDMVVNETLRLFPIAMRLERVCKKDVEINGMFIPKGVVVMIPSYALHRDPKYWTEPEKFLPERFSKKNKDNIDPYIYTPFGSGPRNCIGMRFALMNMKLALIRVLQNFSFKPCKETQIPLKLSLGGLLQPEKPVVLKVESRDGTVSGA

[10] = Trypanosoma cruzi growth suppression in host cells – NIH3T3 host cells, beta-gal luminescence, confirmation (AID 2044); type: functional, cell-based;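 note: intracellular parasites grown in NIH/3T3 mouse fibroblasts as host cells; luminescent beta-galactosidase reporter signal from transgenic T. cruzi replicating inside host cells; inhibitors lower the luminescence signal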
[11] = NIH3T3 cell viability loss – ATP luminescence, mouse fibroblasts, counter-screen, dose response (AID 2010); type: functional, cell-based;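 note: cells exposed to compound for about 90 hours before reading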
[12] = molecular target: Paired box protein Pax-8 (Homo sapiens, UniProt Q06710); test: PAX8 transcriptional activity inhibition in RMG-I – RMG-I cells, luciferase, cherry-pick, dose response (AID 687027); type: functional, cell-based;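 note: luciferase reporter driven by Pax8 target thyroperoxidase promoter measured by SteadyGlo luminescence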
Sequence of Paired box protein Pax-8 (Q06710 whole entry): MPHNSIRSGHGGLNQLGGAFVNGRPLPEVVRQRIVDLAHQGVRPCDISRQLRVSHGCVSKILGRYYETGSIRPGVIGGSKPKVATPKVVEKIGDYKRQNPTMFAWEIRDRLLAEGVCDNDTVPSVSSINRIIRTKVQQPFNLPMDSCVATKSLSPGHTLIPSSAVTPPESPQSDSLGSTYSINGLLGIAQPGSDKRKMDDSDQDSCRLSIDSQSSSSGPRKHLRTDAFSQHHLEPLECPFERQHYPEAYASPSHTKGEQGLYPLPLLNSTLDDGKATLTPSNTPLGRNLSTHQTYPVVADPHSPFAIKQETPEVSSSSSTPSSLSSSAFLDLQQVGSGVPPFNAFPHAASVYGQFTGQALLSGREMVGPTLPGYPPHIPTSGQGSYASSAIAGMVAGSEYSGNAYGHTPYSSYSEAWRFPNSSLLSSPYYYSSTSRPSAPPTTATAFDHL

[13] = molecular target: Cytochrome P450 2C19 (Homo sapiens, UniProt P33261); test: Cytochrome panel assay with activity outcomes. Panel member name: p450-cyp2c19 Compounds with AC50 equal or less than 10 uM are considered active; type: functional; settings: read-out: AC50
Sequence of Cytochrome P450 2C19 (P33261 whole entry): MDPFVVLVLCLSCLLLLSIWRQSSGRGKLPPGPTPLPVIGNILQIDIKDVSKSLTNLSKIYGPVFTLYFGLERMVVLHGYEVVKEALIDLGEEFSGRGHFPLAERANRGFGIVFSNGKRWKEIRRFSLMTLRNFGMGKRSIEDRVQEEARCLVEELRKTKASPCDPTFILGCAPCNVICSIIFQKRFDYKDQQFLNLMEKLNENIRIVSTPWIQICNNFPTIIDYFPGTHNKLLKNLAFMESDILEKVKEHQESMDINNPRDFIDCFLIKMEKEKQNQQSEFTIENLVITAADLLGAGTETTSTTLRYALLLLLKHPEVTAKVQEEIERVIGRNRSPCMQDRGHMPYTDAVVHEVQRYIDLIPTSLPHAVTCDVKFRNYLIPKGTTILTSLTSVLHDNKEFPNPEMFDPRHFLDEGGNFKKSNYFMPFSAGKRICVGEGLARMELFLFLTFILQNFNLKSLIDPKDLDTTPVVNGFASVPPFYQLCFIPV

[14] = molecular target: T5, Cytochrome P450 1A2 (Homo sapiens, UniProt P05177);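 note: PubChem cytochrome P450 panel assay, CYP1A2 panel member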
T5 sequence (P05177 whole entry): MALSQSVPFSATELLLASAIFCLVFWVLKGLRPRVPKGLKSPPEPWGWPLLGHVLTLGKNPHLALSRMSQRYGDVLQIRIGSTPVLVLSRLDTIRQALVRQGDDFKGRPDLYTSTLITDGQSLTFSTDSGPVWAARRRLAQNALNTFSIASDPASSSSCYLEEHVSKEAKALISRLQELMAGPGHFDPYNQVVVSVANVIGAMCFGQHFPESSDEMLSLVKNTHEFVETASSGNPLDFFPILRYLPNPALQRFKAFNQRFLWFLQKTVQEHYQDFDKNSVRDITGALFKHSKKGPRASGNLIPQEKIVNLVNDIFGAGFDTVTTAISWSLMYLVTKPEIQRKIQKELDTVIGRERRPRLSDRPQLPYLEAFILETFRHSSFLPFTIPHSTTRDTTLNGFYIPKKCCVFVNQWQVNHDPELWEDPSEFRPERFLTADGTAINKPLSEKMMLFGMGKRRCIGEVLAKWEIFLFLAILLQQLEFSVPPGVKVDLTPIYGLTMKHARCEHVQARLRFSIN

Cc1cc(NC(=O)CCN2C(=O)/C(=C/c3ccccc3Cl)SC2=S)no1
IC50 [1]: > 50 µM (not active)

CCC(=O)Nc1c(C)nn(C(=O)CC)c1C
EC50 [2]: > 380 µM (inactive) | AC50 [3]: > 380 µM (inactive)

Cc1ccc(NC(=O)c2cc(=O)c3ccccc3o2)cc1S(=O)(=O)N1CCOCC1
IC50 [4]: > 79 µM (inactive)

Cc1nn(-c2cccc(Cl)c2)c2c1C(c1cccnc1)C(C#N)=C(N)O2 (stereo not given)
EC50 [2]: 5.05 µM (active) | AC50 [3]: 16.7 µM (active)

OC1=C2C(=Nc3nn(-c4ccccc4)c(O)c3C2c2ccc3c(c2)OCO3)CCC1 (stereo not given)
EC50 [2]: 3.29 µM (active) | AC50 [3]: 40.9 µM (active)

C[C@H](NC(=O)c1[nH]cnc1C(=O)N[C@@H](CCCCNC(=O)OC(C)(C)C)C(=O)OC(C)(C)C)C(=O)OCc1ccccc1
IC50 [5]: 0.349 µM (active) | IC50 [6]: 0.176 µM (active)

O=C(CSc1nc2ccccc2n1S(=O)(=O)c1cccc([N+](=O)[O-])c1)NCCc1ccccc1
IC50 [5]: 3.67 µM (active) | IC50 [6]: 2.4 µM (active)

Cc1ccc(-n2c(S)nnc2Cc2ccccc2)c(C)c1
EC50 [7]: 2.71 µM (active) | EC50 [8]: > 150 µM (inactive)

O=C(Cn1cnc2c(nnn2Cc2ccc(F)cc2)c1=O)NC1CCCC1
EC50 [7]: > 38 µM (not active) | EC50 [8]: > 150 µM (inactive)

CCCc1cc(O)nc(SCC(=O)Nc2ccc(Br)cc2Br)n1
EC50 [7]: 1.38 µM (active) | EC50 [8]: 84.5 µM (active)

O=C(Nc1ncc([N+](=O)[O-])s1)c1ccco1
EC50 [2]: 17.4 µM (active) | AC50 [3]: 24.2 µM (active)

C=CCn1c(SCc2nc(O)c3ccccc3n2)nnc1-c1cc2cc(Cl)ccc2o1
EC50 [7]: 0.052 µM (active) | EC50 [8]: > 150 µM (inactive)

O=C(NCCN1C(=O)S/C(=C\c2ccccc2)C1=O)C1CCN(S(=O)(=O)c2cccs2)CC1
IC50 [5]: 16.2 µM (active) | IC50 [6]: 18.1 µM (active)

COc1ccc(N2C(=O)C(Cl)=C(NCc3ccccc3)C2=O)cc1
EC50 [2]: 12.9 µM (active) | AC50 [3]: 68.8 µM (active)

Cc1cc(C)c(C#N)c(SCC(=O)c2ccc(Cl)cc2Cl)n1
AC50 [9]: 17.8 µM (inconclusive) | EC50 [10]: 0.169 µM (active) | EC50 [11]: > 60 µM (not active) | IC50 [5]: 7.15 µM (active) | IC50 [6]: 4.77 µM (active)

Cn1c2c(c(=O)n(C)c1=O)C(c1ccc(Br)cc1)Nc1ccccc1O2 (stereo not given)
IC50 [4]: 25.7 µM (active)

O=C(CCCN1C(=O)/C(=C/c2cccc(Br)c2)SC1=S)Nc1ccccn1
AC50 [12]: 5.71 µM (active)

CN(C(=O)c1sc2nc(N3CCOCC3)c3c(c2c1N)CCCC3)c1ccccc1
IC50 [4]: > 79 µM (inactive)

COc1ccccc1NC(=O)COC(=O)c1cc([N+](=O)[O-])ccc1N1CCCC1
IC50 [5]: 5 µM (active) | IC50 [6]: 6.41 µM (active)

O=C(CCNC(=O)c1ccc(Br)cc1)Nc1nccs1
EC50 [7]: > 38 µM (not active) | EC50 [8]: 23.9 µM (inconclusive)

CN(CC(=O)Nc1ccc(F)cc1)C(=O)COC(=O)c1cc([N+](=O)[O-])ccc1N1CCOCC1
IC50 [5]: 6.68 µM (active) | IC50 [6]: 7.99 µM (active)

COc1ccc(C2CCCCCN2C(=O)C2CCN(S(=O)(=O)c3cccc(C(C)=O)c3)CC2)cc1 (stereo not given)
IC50 [4]: > 79 µM (inactive)

COc1cc(CN2C[C@@H](CO)O[C@@H](n3cnc4c(Nc5ccccc5)ncnc43)C2)cc(OC)c1OC
IC50 [4]: 9.14 µM (active)

Cc1nn(-c2ccccc2)nc1C(=O)Nc1cccc(C(=O)NC2CC2)c1
IC50 [4]: > 79 µM (inactive)

COc1ccc(/C=N/NC(=O)c2sccc2OCc2ccc(F)cc2)cc1OC
AC50 [13]: 17.8 µM (inconclusive) | IC50 [4]: > 79 µM (inactive) | AC50 [14]: 14.1 µM (inconclusive)

CO[C@H]1CN(C)C(=O)c2cc(NC(=O)c3nc4ccccc4s3)ccc2OC[C@H](C)N(Cc2cccnc2)C[C@H]1C
AC50 [12]: 18.8 µM (active)

CCCn1c(=O)c2[nH]c(-c3ccc(OCC(=O)Nc4ccc(C#N)cc4)cc3)nc2n(CCC)c1=O
IC50 [4]: > 79 µM (inactive) | AC50 [14]: 31.6 µM (inconclusive)

COc1ccc(C(=O)N/N=C\c2coc3ccc(Cl)cc3c2=O)cc1
EC50 [2]: 19.8 µM (active) | AC50 [3]: > 120 µM (inactive)

O=C(Cc1cc(O)n[nH]1)N/N=C/c1ccccc1Cl
EC50 [2]: 1.26 µM (active) | AC50 [3]: 2 µM (active)

Cc1ccc(S(=O)(=O)/N=C(/c2ccccc2)N2CCOCC2)c(C)c1
EC50 [7]: > 38 µM (not active) | EC50 [8]: > 160 µM (inconclusive)
